ChEMBL document CHEMBL3352542, “Synthesis, biological evaluation and molecular modeling study of 2-(1,3,4-thiadiazolyl-thio and 4-methyl-thiazolyl-thio)-quinazolin-4-ones as a new class of DHFR inhibitors” (Bioorg Med Chem Lett, 2014)
The source made the active and inactive calls. The calls are words filed in the database; no cut-off is given here.

Experiments:
CAKI-1 = test: Growth inhibition of human CAKI-1 cells at 10 uM after 48 hrs; type: functional; settings: CAKI-1, 48 h, read-out: GI
[1] = Growth inhibition of human LOXIMVI cells at 10 uM after 48 hrs; type: functional; settings: LOX IMVI, read-out: GI
[2] = Growth inhibition of human UACC62 cells at 10 uM after 48 hrs; type: functional; settings: UACC-62, 48 h, read-out: GI
[3] = Growth inhibition of human UACC257 cells at 10 uM after 48 hrs; type: functional; settings: UACC-257, 48 h, read-out: GI
K562 = test: Growth inhibition of human K562 cells at 10 uM after 48 hrs; type: functional; settings: K562, 48 h, read-out: GI
[4] = Growth inhibition of human OVCAR4 cells at 10 uM after 48 hrs; type: functional; settings: OVCAR-4, 48 h, read-out: GI
Escherichia coli = test: Antimicrobial activity against Escherichia coli assessed as inhibition zone at 200 ug/disk after 24 hrs by disc-diffusion method; type: functional; settings: read-out: IZ
NCI-H23 = test: Growth inhibition of human NCI-H23 cells at 10 uM after 48 hrs; type: functional; settings: NCI-H23, 48 h, read-out: GI
[5] = Growth inhibition of human Hs 578T cells at 10 uM after 48 hrs; type: functional; settings: read-out: GI
A549 = test: Growth inhibition of human A549 cells at 10 uM after 48 hrs; type: functional; settings: A549, 48 h, read-out: GI
SR = test: Growth inhibition of human SR cells at 10 uM after 48 hrs; type: functional; settings: read-out: GI
KM12 = test: Growth inhibition of human KM12 cells at 10 uM after 48 hrs; type: functional; settings: KM12, 48 h, read-out: GI
T47D = test: Growth inhibition of human T47D cells at 10 uM after 48 hrs; type: functional; settings: read-out: GI
[6] = Growth inhibition of human HCT15 cells at 10 uM after 48 hrs; type: functional; settings: HCT-15, 48 h, read-out: GI
[7] = Growth inhibition of human UO31 cells at 10 uM after 48 hrs; type: functional; settings: UO-31, 48 h, read-out: GI
Pseudomonas aeruginosa = test: Antimicrobial activity against Pseudomonas aeruginosa assessed as inhibition zone at 200 ug/disk after 24 hrs by disc-diffusion method; type: functional; settings: read-out: IZ
SK-MEL-5 = test: Growth inhibition of human SK-MEL-5 cells at 10 uM after 48 hrs; type: functional; settings: SK-MEL-5, 48 h, read-out: GI
Staphylococcus aureus [8] = test: Antimicrobial activity against Staphylococcus aureus assessed as inhibition of visible growth after 24 hrs by disc-diffusion method; type: functional, organism-based
[9] = Growth inhibition of human OVCAR8 cells at 10 uM after 48 hrs; type: functional; settings: OVCAR-8, 48 h, read-out: GI
A498 = test: Growth inhibition of human A498 cells at 10 uM after 48 hrs; type: functional; settings: A498, 48 h, read-out: GI
MDA-MB-468 = test: Growth inhibition of human MDA-MB-468 cells at 10 uM after 48 hrs; type: functional; settings: MDA-MB-468, 48 h, read-out: GI
Staphylococcus aureus [10] = test: Antimicrobial activity against Staphylococcus aureus assessed as inhibition zone at 200 ug/disk after 24 hrs by disc-diffusion method; type: functional; settings: read-out: IZ
MDA-MB-231 = test: Growth inhibition of human MDA-MB-231 cells at 10 uM after 48 hrs; type: functional; settings: MDA-MB-231, 48 h, read-out: GI
[11] = Growth inhibition of human HCT116 cells at 10 uM after 48 hrs; type: functional; settings: HCT-116, 48 h, read-out: GI
[12] = Growth inhibition of human RXF393 cells at 10 uM after 48 hrs; type: functional; settings: RXF 393, 48 h, read-out: GI
SF-268 = test: Growth inhibition of human SF268 cells at 10 uM after 48 hrs; type: functional; settings: SF-268, 48 h, read-out: GI
[13] = Growth inhibition of human RPMI8226 cells at 10 uM after 48 hrs; type: functional; settings: RPMI-8226, 48 h, read-out: GI
MCF7 = test: Growth inhibition of human MCF7 cells at 10 uM after 48 hrs; type: functional; settings: MCF7, 48 h, read-out: GI
ACHN = test: Growth inhibition of human ACHN cells at 10 uM after 48 hrs; type: functional; settings: read-out: GI
[14] = Growth inhibition of human SF295 cells at 10 uM after 48 hrs; type: functional; settings: SF-295, 48 h, read-out: GI
U-251 = test: Growth inhibition of human U251 cells at 10 uM after 48 hrs; type: functional; settings: U-251, 48 h, read-out: GI
Dihydrofolate reductase = molecular target: T1, Dihydrofolate reductase (Bos taurus, UniProt P00376); test: Inhibition of bovine liver DHFR
T1 sequence (P00376 whole entry): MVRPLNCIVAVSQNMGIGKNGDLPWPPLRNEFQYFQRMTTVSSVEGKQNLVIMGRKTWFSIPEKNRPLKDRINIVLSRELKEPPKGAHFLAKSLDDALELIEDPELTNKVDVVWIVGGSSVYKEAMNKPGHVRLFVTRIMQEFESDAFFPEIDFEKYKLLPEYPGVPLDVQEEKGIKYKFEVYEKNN

[15] = Growth inhibition of human NCI-ADR-RES cells at 10 uM after 48 hrs; type: functional; settings: read-out: GI
[16] = Growth inhibition of human HOP92 cells at 10 uM after 48 hrs; type: functional; settings: HOP-92, 48 h, read-out: GI
Candida albicans = test: Antimicrobial activity against Candida albicans assessed as inhibition zone at 200 ug/disk after 24 hrs by disc-diffusion method; type: functional; settings: read-out: IZ
SNB-75 = test: Growth inhibition of human SNB75 cells at 10 uM after 48 hrs; type: functional; settings: SNB-75, 48 h, read-out: GI
Bacillus subtilis [17] = test: Antimicrobial activity against Bacillus subtilis assessed as inhibition of visible growth after 24 hrs by disc-diffusion method; type: functional, organism-based
[18] = Growth inhibition of human SF539 cells at 10 uM after 48 hrs; type: functional; settings: SF-539, 48 h, read-out: GI
[19] = Growth inhibition of human OVCAR3 cells at 10 uM after 48 hrs; type: functional; settings: OVCAR-3, 48 h, read-out: GI
M14 = test: Growth inhibition of human M14 cells at 10 uM after 48 hrs; type: functional; settings: M14, 48 h, read-out: GI
NCI-H226 = test: Growth inhibition of human NCI-H226 cells at 10 uM after 48 hrs; type: functional; settings: NCI-H226, 48 h, read-out: GI
[20] = Growth inhibition of human PC3 cells at 10 uM after 48 hrs; type: functional; settings: PC-3, 48 h, read-out: GI
[21] = Growth inhibition of human MOLT4 cells at 10 uM after 48 hrs; type: functional; settings: MOLT-4, 48 h, read-out: GI
Bacillus subtilis [22] = test: Antimicrobial activity against Bacillus subtilis assessed as inhibition zone at 200 ug/disk after 24 hrs by disc-diffusion method; type: functional; settings: read-out: IZ
CCRF-CEM = test: Growth inhibition of human CCRF-CEM cells at 10 uM after 48 hrs; type: functional; settings: read-out: GI

IC50 (Dihydrofolate reductase): 5 µM
Compound: Cc1ccc2nc(Sc3sc(N)nc3C)n(Cc3ccccc3)c(=O)c2c1
inhibition of growth at 10 µM (CAKI-1): 13.7% | inhibition of growth at 10 µM [1]: 19.5% | inhibition of growth at 10 µM [2]: 22.8% | inhibition of growth at 10 µM [3]: 11.6% | inhibition of growth at 10 µM (K562): 17.4% | inhibition of growth at 10 µM [4]: 18.7% | zone of inhibition at 200 µg/disc (Escherichia coli): 8 mm | inhibition of growth at 10 µM (NCI-H23): 19.2% | inhibition of growth at 10 µM [5]: 19.4% | inhibition of growth at 10 µM (A549): 22.1% | inhibition of growth at 10 µM (SR): 19% | inhibition of growth at 10 µM (KM12): 18.8% | inhibition of growth at 10 µM (T47D): 23.9% | inhibition of growth at 10 µM [6]: 13.5% | inhibition of growth at 10 µM [7]: 35.5% | zone of inhibition at 200 µg/disc (Pseudomonas aeruginosa): 8 mm | inhibition of growth at 10 µM (SK-MEL-5): 25.8% | Activity (Staphylococcus aureus [8]): Active | inhibition of growth at 10 µM [9]: 16% | inhibition of growth at 10 µM (A498): 21.9% | inhibition of growth at 10 µM (MDA-MB-468): 30.1% | zone of inhibition at 200 µg/disc (Staphylococcus aureus [10]): 18 mm | inhibition of growth at 10 µM (MDA-MB-231): 14.2% | inhibition of growth at 10 µM [11]: 20.7% | inhibition of growth at 10 µM [12]: 17.8% | inhibition of growth at 10 µM (SF-268): 10.8% | inhibition of growth at 10 µM [13]: 28.1% | inhibition of growth at 10 µM (MCF7): 10.7% | inhibition of growth at 10 µM (ACHN): 19.8% | inhibition of growth at 10 µM [14]: 21.9% | inhibition of growth at 10 µM (U-251): 12.2% | inhibition of growth at 10 µM [15]: 20.3% | inhibition of growth at 10 µM [16]: 50.2% | zone of inhibition at 200 µg/disc (Candida albicans): 12 mm | inhibition of growth at 10 µM (SNB-75): 22.7% | Activity (Bacillus subtilis [17]): Active | inhibition of growth at 10 µM [18]: 15.1% | inhibition of growth at 10 µM [19]: 19.2% | inhibition of growth at 10 µM (M14): 10.3% | inhibition of growth at 10 µM (NCI-H226): 22.7% | inhibition of growth at 10 µM [20]: 34.5% | inhibition of growth at 10 µM [21]: 34.2% | zone of inhibition at 200 µg/disc (Bacillus subtilis [22]): 21 mm | inhibition of growth at 10 µM (CCRF-CEM): 14.9%
